Structures are written as SMILES. Where a name gives a salt, the structure may show the parent alone.

In the data set the test system is hDMFa myofibroblast cells.

In the case of `C=CC(=O)Nc1cccc(Oc2nc(Nc3ccc(N4CCN(C)CC4)cc3)nc3ccsc23)c1` [Cmpd 735, Olmutinib (HM61713, BI1482694)], the “Compound Myofibroblast Cytotoxicity Activity” value was “++++”.
To `COc1ccc2[n-]c([S+]([O-])Cc3ncc(C)c(OC)c3C)nc2c1.[Na+]` (centres unmarked) [Cmpd 737, Omeprazole Sodium] belongs “++”.
To `CCCCCCCCOc1ccccc1C(=O)Nc1ccc(C(=O)OCC[N+](C)(CC)CC)cc1` [Cmpd 741, Otilonium Bromide] belongs “+++++”; to `Cc1ccccc1C(=O)O` [Cmpd 742, o-Toluic acid], “++”; to `CN(C(=O)CN(CCO)CC(=O)N(C)C(C)(C)Cc1ccccc1)C(C)(C)Cc1ccccc1` [Cmpd 745, Oxethazaine], “+++++”.
For `CCN(CC)CC#CCOC(=O)C(O)(c1ccccc1)C1CCCCC1` (centres unmarked) [Cmpd 747, Oxybutynin], the “Compound Myofibroblast Cytotoxicity Activity” value is “++”.
In the case of `C1=N/C2=N/c3ccc(OCCN4CCCC4)c(c3)COC/C=C/COCc3cccc(c3)C(=C1)N2` [Cmpd 751, Pacritinib (SB1518)], the “Compound Myofibroblast Cytotoxicity Activity” value was “+++”.
In the case of `CC(=O)c1c(C)c2cnc(Nc3ccc(N4CCNCC4)cn3)nc2n(C2CCCC2)c1=O.O=S(=O)(O)CCO` [Cmpd 753, Palbociclib (PD0332991) Isethionate] it was “+++++”; in that of `CCCCCCCCCCCCCCCC(=O)OC` [Cmpd 754], “+++”.
In the case of `NCCC(O)(P(=O)([O-])O)P(=O)([O-])O.[Na+].[Na+]` [Cmpd 756, Pamidronate Disodium] it was “+++”; in that of `C#CCN(C)Cc1ccccc1` [Cmpd 757, Pargyline (hydrochloride)], “++”.
To `Fc1ccc([C@@H]2CCNC[C@H]2COc2ccc3c(c2)OCO3)cc1` [Cmpd 758, Paroxetine HCl] belongs “+++”; to `CS(=O)(=O)O.C[C@H]1COc2c(C3(N)CC3)c(F)cc3c(=O)c(C(=O)O)cn1c23` [Cmpd 760, Pazufloxacin mesylate], “+++”; to `Cc1ccc(O)cc1` [Cmpd 762, p-Cresol], “++”.
As for `CC(=O)c1c(C)c2cnc(Nc3ccc(N4CCNCC4)cn3)nc2n(C2CCCC2)c1=O.Cl` [Cmpd 763, PD 0332991 (Palbociclib) HCl], the “Compound Myofibroblast Cytotoxicity Activity” value was “++++”.
To `OC1(c2ccc(Cl)c(C(F)(F)F)c2)CCN(CCCC(c2ccc(F)cc2)c2ccc(F)cc2)CC1` [Cmpd 765, Penfluridol] belongs “+++”.
As to `CC(C)(S)[C@@H](N)C(=O)O` [Cmpd 766, Penicillamine], the “Compound Myofibroblast Cytotoxicity Activity” value is recorded as “++”.
As for `N=C(N)c1ccc(OCCCCCOc2ccc(C(=N)N)cc2)cc1.O=S(=O)(O)CCO.O=S(=O)(O)CCO` [Cmpd 768, Pentamidine isethionate], the “Compound Myofibroblast Cytotoxicity Activity” value is “+++”.
To `CC(=O)CCCCn1c(=O)c2c(ncn2C)n(C)c1=O` [Cmpd 769, Pentoxifylline] belongs “++++”.
In the case of `C1CCc2nnnn2CC1` [Cmpd 770, Pentylenetetrazole] it was “++++”.
In the case of `OCCN1CCN(CCCN2c3ccccc3Sc3ccc(Cl)cc32)CC1` [Cmpd 773, Perphenazine], the “Compound Myofibroblast Cytotoxicity Activity” value is given as “+++++”.
Consider `COS(=O)(=O)[O-].C[n+]1c2ccccc2nc2ccccc21` [Cmpd 775, Phenazine methosulfate], for which the “Compound Myofibroblast Cytotoxicity Activity” value is on record as “+++++”.
`CC(COc1ccccc1)N(CCCl)Cc1ccccc1.Cl` (centres unmarked) [Cmpd 776, Phenoxybenzamine HCl]: the “Compound Myofibroblast Cytotoxicity Activity” value is listed as “++”.
In the case of `O=C1NC(=O)C(c2ccccc2)(c2ccccc2)N1` [Cmpd 778, Phenytoin sodium] it was “++”; in that of `O=C(O)c1ccccc1C(=O)O` [Cmpd 781, Phthalic acid], “++”.
To `O=C(O)CCCNC(=O)c1cccnc1` [Cmpd 783, Pikamilone] belongs “++”; to `CCc1ccc(CCOc2ccc(CC3SC(=O)NC3=O)cc2)nc1` (centres unmarked) [Cmpd 785, Pioglitazone HCl], “+++”.
In the case of `O=C([O-])C[C@H](O)C[C@H](O)/C=C/c1c(C2CC2)nc2ccccc2c1-c1ccc(F)cc1.O=C([O-])C[C@H](O)C[C@H](O)/C=C/c1c(C2CC2)nc2ccccc2c1-c1ccc(F)cc1.[Ca+2]` [Cmpd 786, Pitavastatin Calcium] it was “+++”.
`Nc1cccc2c1C(=O)N(C1CCC(=O)NC1=O)C2=O` (centres unmarked) [Cmpd 789, Pomalidomide (CC-4047)]: the “Compound Myofibroblast Cytotoxicity Activity” value is recorded as “++”.
Take `C[n+]1ccccc1/C=N/O` [Cmpd 792, Pralidoxime Iodide]: the “Compound Myofibroblast Cytotoxicity Activity” value was “++”.
In the case of `CC(=O)Oc1cc2c(s1)CCN(C(C(=O)C1CC1)c1ccccc1F)C2.Cl` (centres unmarked) [Cmpd 794, Prasugrel hydrochloride] it was “++”.
As for `COc1cc(NC(C)CCCN)c2ncccc2c1.O=P(O)(O)O.O=P(O)(O)O` (centres unmarked) [Cmpd 796, Primaquine Diphosphate], the “Compound Myofibroblast Cytotoxicity Activity” value is reported as “+++”.
To `CN1CCN(CCCN2c3ccccc3Sc3ccc(Cl)cc32)CC1` [Cmpd 797, Prochlorperazine] belongs “+++++”; to `CC(=O)[C@H]1CC[C@H]2[C@@H]3CCC4=CC(=O)CC[C@]4(C)[C@H]3CC[C@]12C` [Cmpd 799, Progesterone], “+++”; to `CCCOc1ccc2c(c1)CC[C@@H]1[C@@H]2CC[C@]2(C)[C@@H](OC)CC[C@@H]12` [Cmpd 800, Promestriene], “++”.
In the case of `CC(CN1c2ccccc2Sc2ccccc21)N(C)C` (centres unmarked) [Cmpd 801, Promethazine HCl] it was “++”; in that of `O=C(O)c1ccc(O)c(O)c1` [Cmpd 804, Protocatechuic acid], “++”; in that of `CC(O)Cn1cnc2c1c(=O)n(C)c(=O)n2C` (centres unmarked) [Cmpd 805, Proxyphylline], “++”.
To `COCCCN1CCC(NC(=O)c2cc(Cl)c(N)c3c2OCC3)CC1` [Cmpd 806, Prucalopride] belongs “+++”; to `Cc1ncc(CO)c(CO)c1O` [Cmpd 809, Pyridoxine], “++”.
Consider `Oc1ccccc1O` [Cmpd 810, Pyrocatechol], for which the “Compound Myofibroblast Cytotoxicity Activity” value is given as “++”.
Turning to `N.S=C(S)N1CCCC1` [Cmpd 811, Pyrrolidinedithiocarbamate ammonium], the “Compound Myofibroblast Cytotoxicity Activity” value is “++”.
To `CC(C)(C)c1cc(NC(=O)Nc2ccc(-c3cn4c(n3)sc3cc(OCCN5CCOCC5)ccc34)cc2)no1` [Cmpd 815, Quizartinib (AC220)] belongs “++++”; to `COc1cc(Nc2ncc(F)c(Nc3ccc4c(n3)N(COP(=O)([O-])[O-])C(=O)C(C)(C)O4)n2)cc(OC)c1OC.[Na+].[Na+]` [Cmpd 816, R788 disodium], “++”.

Values taken from US20260102359A1, “COMBINATION TREATMENT OF DERMAL AND TRANSDERMAL FIBROTIC DISEASES, DISORDERS AND ASSOCIATED PAIN AND INFLAMMATION” (ERESINA, LLC, priority 2022, published 2026).
